Test results taken from patent publication US11800867B2, “Methods of repelling biting arthropods, reducing pathogen spread and treating arthropod infestation” (priority 2016, dated 2023).
Where “and” joins values, the source holds several entries; their conditions need not be identical. Identical values can stand only once.

Key:
Experiment in all cases: Treated filter paper knockdown (KD) and mortality trial (Example 4)
Format in all cases: in vivo
[1] = tested on: Southern house mosquito (Culex)
Description: (§1) A laboratory trial was conducted to assess the efficacy of nootkatone applied to filter paper against aphids (Schizaphis gramium), dust mites (Dermatophagoides sp.), termites (Reticulitermes flavipes), deer ticks (Ixodes scapularis), biting midges (Culicoides sp.), fire ants (Solenopsis invicta), and mosquitoes (Aedes aegypti and Culex), in terms of knockdown (KD) and mortality. One concentration (1% in ethanol) of nootkatone was assessed for most species, but three concentrations (0.25%, 0.5%, and 1% in ethanol) were assessed for mosquitoes. A negative control group, consisting of filter paper treated with ethanol, was also assessed for comparison purposes for each species.
(§2) Test systems were introduced to treated filter paper, allowed to dry, and then introduced into treatment chamber, where treated arthropods were monitored at intervals up to 72 hours. If 100% mortality was obtained prior to 72 hours, the individual study was halted.
(§3) Midges and mosquitoes—5 replicates of 10 insects per treatment were tested. Inverted 10 ounce (295 ml) clear plastic cups with a 0.5 inch (1.27 cm) hole burned into the center of the bottom, and with the sides coated with Fluon® was used at the treatment containers. The bottoms of the containers consisted of Petri dish lids 3.54 inches (9.0 cm) in diameter lined with a treated filter paper circle the same diameter. The cup was placed over the filter paper in the lid and both were secured in place using 2 rubber bands. The insects were introduced through the hole in the cup, and a plastic disc was placed over the opening to prevent escapes.
(§4) Readings were discontinued if treated mortality reaches […], or control mortality exceeds 20%.

[2] = tested on: biting midges (Culicoides sp.); conditions: Nootkatone 1% in ethanol on filter paper
Description: as §1, §2, §3, §4

[3] = tested on: Yellow Fever mosquito (Aedes aegypti)
Description: as §1, §2, §3, §4

[4] = Nootkatone 0.25% in ethanol on filter paper, 30 minutes post introduction
[5] = Nootkatone 0.25% in ethanol on filter paper, 1 hour post introduction
[6] = Nootkatone 0.25% in ethanol on filter paper, 4 hours post introduction
[7] = Nootkatone 0.25% in ethanol on filter paper, 8 hours post introduction
[8] = Nootkatone 0.25% in ethanol on filter paper, 24 hours post introduction
[9] = Nootkatone 0.25% in ethanol on filter paper, 48 hours post introduction
[10] = Nootkatone 0.25% in ethanol on filter paper, 72 hours post introduction
[11] = Nootkatone 0.5% in ethanol on filter paper, 30 minutes post introduction
[12] = Nootkatone 0.5% in ethanol on filter paper, 1 hour post introduction
[13] = Nootkatone 0.5% in ethanol on filter paper, 4 hours post introduction
[14] = Nootkatone 0.5% in ethanol on filter paper, 8 hours post introduction
[15] = Nootkatone 0.5% in ethanol on filter paper, 24 hours post introduction
[16] = Nootkatone 0.5% in ethanol on filter paper, 48 hours post introduction
[17] = Nootkatone 0.5% in ethanol on filter paper, 72 hours post introduction
[18] = Nootkatone 1% in ethanol on filter paper, 30 minutes post introduction
[19] = Nootkatone 1% in ethanol on filter paper, 1 hour post introduction
[20] = Nootkatone 1% in ethanol on filter paper, 4 hours post introduction
[21] = Nootkatone 1% in ethanol on filter paper, 8 hours post introduction
[22] = Nootkatone 1% in ethanol on filter paper, 24 hours post introduction
[23] = Nootkatone 1% in ethanol on filter paper, 48 hours post introduction
[24] = Nootkatone 1% in ethanol on filter paper, 72 hours post introduction

C=C(C)[C@@H]1CCC2=CC(=O)C[C@@H](C)[C@]2(C)C1 [Nootkatone, nootkatone]
Means Affected [1, 4]: 24.0% | Means Dead [1, 4]: 0.0% | Means KD [1, 4]: 24.0% | Means Affected [1, 5]: 22.0% | Means Dead [1, 5]: 0.0% | Means KD [1, 5]: 22.0% | Means Affected [1, 6]: 32.2% | Means Dead [1, 6]: 0.0% | Means KD [1, 6]: 32.2% | Means Affected [1, 7]: 18.0% | Means Dead [1, 7]: 0.0% | Means KD [1, 7]: 18.0% | Means Affected [1, 8]: 26.2% | Means Dead [1, 8]: 12.2% | Means KD [1, 8]: 14.0% | Means Affected [1, 9]: 75.6% | Means Dead [1, 9]: 61.3% | Means KD [1, 9]: 14.2% | Means Affected [1, 10]: 76.0% | Means Dead [1, 10]: 74.0% | Means KD [1, 10]: 2.0% | Means Affected [1, 11]: 0.0% | Means Dead [1, 11]: 0.0% | Means KD [1, 11]: 0.0% | Means Affected [1, 12]: 2.5% | Means Dead [1, 12]: 0.0% | Means KD [1, 12]: 2.5% | Means Affected [1, 13]: 4.0% | Means Dead [1, 13]: 0.0% | Means KD [1, 13]: 4.0% | Means Affected [1, 14]: 4.0% | Means Dead [1, 14]: 0.0% | Means KD [1, 14]: 4.0% | Means Affected [1, 15]: 29.0% | Means Dead [1, 15]: 10.5% | Means KD [1, 15]: 18.5% | Means Affected [1, 16]: 72.0% | Means Dead [1, 16]: 49.0% | Means KD [1, 16]: 23.0% | Means Affected [1, 17]: 82.0% | Means Dead [1, 17]: 82% | Means KD [1, 17]: 0.0% | Means Affected [1, 18]: 2.2% | Means Dead [1, 18]: 0.0% | Means KD [1, 18]: 2.2% | Means Affected [1, 19]: 52.2% | Means Dead [1, 19]: 0.0% | Means KD [1, 19]: 52.2% | Means Affected [1, 20]: 83.7% | Means Dead [1, 20]: 0.0% | Means KD [1, 20]: 83.7% | Means Affected [1, 21]: 92.0% | Means Dead [1, 21]: 13.1% | Means KD [1, 21]: 78.9% | Means Affected [1, 22]: 100.0% | Means Dead [1, 22]: 97.8% | Means KD [1, 22]: 2.2% | Means Affected [1, 23]: 100.0% | Means Dead [1, 23]: 100.0% | Means KD [1, 23]: 0.0% | Means Affected [1, 24]: 100.0% | Means Dead [1, 24]: 100% | Means KD [1, 24]: 0.0% | Time required for greater than 90% killing [2]: 24 h | Means Affected ([2]; 30 minutes post introduction): 100.0% | Means Dead ([2]; 30 minutes post introduction): 0.0% | Means KD ([2]; 30 minutes post introduction): 100.0% | Means Affected ([2]; 1 hour post introduction): 100.0% | Means Dead ([2]; 1 hour post introduction): 1.8% | Means KD ([2]; 1 hour post introduction): 98.2% | Means Affected ([2]; 4 hours post introduction): 100.0% | Means Dead ([2]; 4 hours post introduction): 78.7% | Means KD ([2]; 4 hours post introduction): 21.3% | Means Affected ([2]; 24 hours post introduction): 100.0% | Means Dead ([2]; 24 hours post introduction): 100% | Means KD ([2]; 24 hours post introduction): 0.0% | Means Dead ([2]; 24 hours post introduction, listed as nootkatone): 100% | Means Affected [3, 4]: 17.8% | Means Dead [3, 4]: 17.8% | Means KD [3, 4]: 0.0% | Means Affected [3, 5]: 20.0% | Means Dead [3, 5]: 20.0% | Means KD [3, 5]: 0.0% | Means Affected [3, 6]: 20.0% | Means Dead [3, 6]: 20.0% | Means KD [3, 6]: 0.0% | Means Affected [3, 7]: 17.8% | Means Dead [3, 7]: 15.6% | Means KD [3, 7]: 2.2% | Means Affected [3, 8]: 17.8% | Means Dead [3, 8]: 13.3% | Means KD [3, 8]: 4.4% | Means Affected [3, 9]: 17.6% | Means Dead [3, 9]: 15.6% | Means KD [3, 9]: 2.0% | Means Affected [3, 10]: 26.0% | Means Dead [3, 10]: 17.6% | Means KD [3, 10]: 8.4% | Means Affected [3, 11]: 0.0% | Means Dead [3, 11]: 0.0% | Means KD [3, 11]: 0.0% | Means Affected [3, 12]: 0.0% | Means Dead [3, 12]: 0.0% | Means KD [3, 12]: 0.0% | Means Affected [3, 13]: 5.3% | Means Dead [3, 13]: 0.0% | Means KD [3, 13]: 5.3% | Means Affected [3, 14]: 29.9% | Means Dead [3, 14]: 0.0% | Means KD [3, 14]: 29.9% | Means Affected [3, 15]: 83.1% | Means Dead [3, 15]: 22.5% | Means KD [3, 15]: 60.6% | Means Affected [3, 16]: 87.1% | Means Dead [3, 16]: 72.0% | Means KD [3, 16]: 15.1% | Means Affected [3, 17]: 100.0% | Means Dead [3, 17]: 92% and 92.5% | Means KD [3, 17]: 7.5% | Means Affected [3, 18]: 0.0% | Means Dead [3, 18]: 0.0% | Means KD [3, 18]: 0.0% | Means Affected [3, 19]: 1.8% | Means Dead [3, 19]: 0.0% | Means KD [3, 19]: 1.8% | Means Affected [3, 20]: 46.9% | Means Dead [3, 20]: 0.0% | Means KD [3, 20]: 46.9% | Means Affected [3, 21]: 80.4% | Means Dead [3, 21]: 0.0% | Means KD [3, 21]: 80.4% | Means Affected [3, 22]: 84.0% | Means Dead [3, 22]: 65.5% | Means KD [3, 22]: 18.5% | Means Affected [3, 23]: 90.0% | Means Dead [3, 23]: 80.4% | Means KD [3, 23]: 9.6% | Means Affected [3, 24]: 94.0% | Means Dead [3, 24]: 92% | Means KD [3, 24]: 2.0%
